Assay [1] relates to group I PAKs (PAK1-3) in EBC1 cells, MEK1 phosphorylation at S298. As to the kind of experiment: Cellular PAK assay: MEK1 (S298) phosphorylation in EBC1 cells, HTRF. In kind it is cell-based. As to conditions: Homo sapiens, EBC-1, 2 h treatment, Example 66. Here is the method: Group I PAKs (PAK1-3) are activated upon binding to the Rho GTPases, Rac1 and Cdc42. […] The inhibition of group I PAKs in EBC1 cells is assessed by detecting changes in the level of MEK1 phosphorylation at S298 using homogenous time-resolved fluorescence (HTRF). […] Following inhibitor treatment, cells were lysed with 25 μL of 1× cellular kinase lysis buffer (Cisbio) containing 1× cellular kinase blocking reagent (Cisbio). Cellular lysis was carried out at 4° C. for 2 h with constant shaking before lysate (16 μL) was transferred to white 384-well ProxiPlates™ (Perkin Elmer).

The target in assay [2] is T1, human recombinant GST-PAK1-KD protein (Homo sapiens, UniProt Q13153).
T1 construct: residues #249-545 of human PAK1, UniProtKP/Swiss Q13153; His6 (N); made in house; host or cells: Sf9 insect cells, pAcGP67 baculovirus expression vector
Kind of assay: GST-PAK1-KD (kinase domain) biochemical assay, microfluidic mobility shift.

[3] abbreviates: GST-PAK1-KD Inhibition Assay - Example 65, read-out: PAK1 inhibition Ki.
Setting [4] is: Table I, PAK1 Ki class, read-out: Ki.
Where [5] appears, read: Table II, PAK1 Ki class, read-out: Ki.

Each structure is given as a SMILES string. Structures can show the parent of a compound that is named as a salt. Where two headings read alike, the source gives them in different places.

T1 sequence (Q13153 249-545): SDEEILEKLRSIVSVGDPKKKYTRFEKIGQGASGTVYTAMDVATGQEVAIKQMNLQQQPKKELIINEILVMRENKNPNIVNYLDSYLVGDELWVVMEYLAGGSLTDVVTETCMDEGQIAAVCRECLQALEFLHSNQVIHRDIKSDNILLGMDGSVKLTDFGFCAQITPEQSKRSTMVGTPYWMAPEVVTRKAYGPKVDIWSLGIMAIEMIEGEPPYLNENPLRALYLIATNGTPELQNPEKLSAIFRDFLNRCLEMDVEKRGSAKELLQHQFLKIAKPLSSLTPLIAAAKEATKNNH

As usually defined, the IC50 is the concentration that gives 50% inhibition. A high value points to a need for much substance. In general, Ki refers to the dissociation constant of the complex between target and ligand, obtained from inhibition or displacement. The molecule `Cc1cc(Nc2cc(C3CC3)[nH]n2)nc(N[C@@H](C)c2ccc3[nH]ccc3c2)n1` [I-7, (S)—N^2-(1-(1H-indol-5-yl)ethyl)-N^4-(5-cyclopropyl-1H-pyrazol-3-yl)-6-methylpyrimidine-2,4-diamine] returned a half-maximal inhibitory concentration (IC50) in assay [1] of 212 nM. For the same molecule, the inhibition constant (Ki) was 13.5 nM in assay [2] (setting [3]) and less than 50 nM in assay [2] (setting [4]). With `COCCc1cc(Nc2ccnc(N(C)Cc3ccc4[nH]cnc4c3Cl)n2)n[nH]1` [II-102, N^2-((4-chloro-1H-benzo[d]imidazol-5-yl)methyl)-N^4-(5-(2-methoxyethyl)-1H-pyrazol-3-yl)-N^2-methylpyrimidine-2,4-diamine], in assay [1], the half-maximal inhibitory concentration (IC50) was 1500 nM. The inhibitory constant (Ki) in assay [2] (setting [3]) was 63.3 nM; in assay [2] (setting [5]), 50 to 250 nM. For `c1cc(CNc2nccc(Nc3cc(C4CC4)[nH]n3)n2)c2cn[nH]c2c1` [I-59, N^2-((1H-Indazol-4-yl)methyl)-N^4-(5-cyclopropyl-1H-pyrazol-3-yl)pyrimidine-2,4-diamine], in assay [1], inhibition was half-maximal at 104 nM (IC50). Further, the Ki was 37 nM in assay [2] (setting [3]) and less than 50 nM in assay [2] (setting [4]). For the molecule `CCN(Cc1ccc2[nH]cnc2c1Cl)c1nccc(Nc2cc(C(C)C)[nH]n2)n1` [II-11, N^2-((4-Chloro-1H-benzo[d]imidazol-5-yl)methyl)-N^2-ethyl-N^4-(5-isopropyl-1H-pyrazol-3-yl)pyrimidine-2,4-diamine], the IC50 in assay [1] is 43 nM. Further, the inhibition constant (Ki) in assay [2] (setting [3]) was 1.6 nM; in assay [2] (setting [5]) it was less than 50 nM. In the same order, the values of `CCOc1cc(Nc2ccnc(N(C)Cc3ccc4[nH]cnc4c3Cl)n2)n[nH]1` [II-33, N^2-((4-Chloro-1H-benzo[d]imidazol-5-yl)methyl)-N^4-(5-ethoxy-1H-pyrazol-3-yl)-N^2-methylpyrimidine-2,4-diamine] are 648 nM, 97.9 nM and 50 to 250 nM. Regarding `COCCN(Cc1cc(F)cc2[nH]ncc12)c1nccc(Nc2cc(C3CC3)[nH]n2)n1` [II-94, N^4-(5-cyclopropyl-1H-pyrazol-3-yl)-N^2-((6-fluoro-1H-indazol-4-yl)methyl)-N^2-(2-methoxyethyl)pyrimidine-2,4-diamine], the IC50 in assay [1] came to 64.1 nM. For the same molecule, the figures for the Ki in assay [2] (setting [3]) and in assay [2] (setting [5]) were 36.8 nM and less than 50 nM, respectively. On the same counts, the results for `CN(Cc1ccc2[nH]cnc2c1Cl)c1nccc(Nc2cc(C(F)F)[nH]n2)n1` [II-81, N^2-((4-chloro-1H-benzo[d]imidazol-5-yl)methyl)-N^4-(5-(difluoromethyl)-1H-pyrazol-3-yl)-N^2-methylpyrimidine-2,4-diamine] are 235 nM, 19.7 nM and less than 50 nM. In the same order, the values of `Fc1cc(CN(CCN2CCCC2)c2nccc(Nc3cc(C4CC4)[nH]n3)n2)c2cn[nH]c2c1` [II-59, N^4-(5-cyclopropyl-1H-pyrazol-3-yl)-N^2-((6-fluoro-1H-indazol-4-yl)methyl)-N^2-(2-(pyrrolidin-1-yl)ethyl)pyrimidine-2,4-diamine] are 257 nM, 6 nM and less than 50 nM. `C[C@H](Nc1nccc(Nc2cc(CC3CC3)[nH]n2)n1)c1ccc2[nH]cnc2c1` [I-45, (S)—N^2-(1-(1H-benzo[d]imidazol-5-yl)ethyl)-N^4-(5-(cyclopropylmethyl)-1H-pyrazol-3-yl)pyrimidine-2,4-diamine] returned an IC50 in assay [1] of 1200 nM. The Ki in assay [2] (setting [3]) was 41 nM; in assay [2] (setting [4]), less than 50 nM. On the same counts, the results for `C[C@H](Nc1nccc(Nc2cc([C@H]3CC3(F)F)[nH]n2)n1)c1ccc2[nH]cnc2c1` [I-62, N^2—((S)-1-(1H-benzo[d]imidazol-5-yl)ethyl)-N^4-(5-((R)-2,2-difluorocyclopropyl)-1H-pyrazol-3-yl)pyrimidine-2,4-diamine] are 244 nM, 5.13 nM and less than 50 nM. Take `CC[C@H](Nc1ncc(F)c(Nc2cc(C3CC3)[nH]n2)n1)c1ccc2[nH]cnc2c1` [I-101, N^2-[(1S)-1-(1H-benzimidazol-5-yl)propyl]-N^4-(5-cyclopropyl-1H-pyrazol-3-yl)-5-fluoro-pyrimidine-2,4-diamine]: the Ki in assay [2] (setting [4]) lay in the range of 50 to 250 nM. For the molecule `Cc1cc(Nc2ccnc(N[C@@H](C)c3ccc4[nH]ccc4c3)n2)n[nH]1` [I-112, (S)—N^2-(1-(1H-indol-5-yl)ethyl)-N^4-(5-methyl-1H-pyrazol-3-yl)pyrimidine-2,4-diamine], in assay [2] (setting [4]), the Ki lay within 250 to 1000 nM.

Consider `C[C@H](Nc1nccc(Nc2cc(C3CC3)[nH]n2)n1)c1cc2nc[nH]c2cc1Cl` [II-38, (S)-N^2-(1-(6-Chloro-1H-benzo[d]imidazol-5-yl)ethyl)-N^4-(5-cyclopropyl-1H-pyrazol-3-yl)pyrimidine-2,4-diamine], for which the Ki in assay [2] (setting [5]) is 50 to 250 nM. Regarding `c1cc(CNc2nccc(Nc3cc(C4CCCC4)[nH]n3)n2)c2cc[nH]c2c1` [I-50, N^2-((1H-indol-4-yl)methyl)-N^4-(5-cyclopentyl-1H-pyrazol-3-yl)pyrimidine-2,4-diamine], the inhibitory constant (Ki) in assay [2] (setting [4]) lay in the range of 50 to 250 nM.

Turning to `CN(Cc1ccc2[nH]cnc2c1)c1ncc(F)c(Nc2cc(C3CC3)[nH]n2)n1` [II-103, N^2-((1H-benzo[d]imidazol-5-yl)methyl)-N^4-(5-cyclopropyl-1H-pyrazol-3-yl)-5-fluoro-N^2-methylpyrimidine-2,4-diamine], the inhibition constant (Ki) in assay [2] (setting [5]) was 50 to 250 nM. As to `C[C@H](Nc1nccc(Nc2cc([C@H]3C[C@@H]3F)[nH]n2)n1)c1ccc2[nH]cnc2c1` [I-70, N^2—((S)-1-(1H-benzo[d]imidazol-5-yl)ethyl)-N^4-(5-((1R,2S)-2-fluorocyclopropyl)-1H-pyrazol-3-yl)pyrimidine-2,4-diamine], in assay [2] (setting [4]), the Ki is less than 50 nM. Consider `COc1n[nH]c2cccc(CNc3nccc(Nc4cc(C5CC5)[nH]n4)n3)c12` [II-22, N^4-(5-Cyclopropyl-1H-pyrazol-3-yl)-N^2-((3-methoxy-1H-indazol-4-yl)methyl)pyrimidine-2,4-diamine], for which the Ki in assay [2] (setting [5]) was less than 50 nM. The same measure, in the same setting: under `Clc1c(CNc2nccc(Nc3cc(C4COC4)[nH]n3)n2)ccc2[nH]cnc12` [II-4, N^2-[(4-chloro-1H-benzimidazol-5-yl)methyl]-N^4-[5-(oxetan-3-yl)-1H-pyrazol-3-yl]pyrimidine-2,4-diamine, formic acid salt] stands less than 50 nM; under `Clc1c(CNc2nccc(Nc3cc(OCC4CC4)[nH]n3)n2)ccc2[nH]cnc12` [II-6, N^2-(4-Chloro-1H-benzoimidazol-5-ylmethyl)-N4-(5-cyclopropylmethoxy-1H-pyrazol-3-yl)-pyrimidine-2,4-diamine], less than 50 nM; under `CN(Cc1ccc2[nH]cnc2c1Cl)c1nccc(Nc2cc(C3(F)CC3)[nH]n2)n1` [II-55, N^2-((4-chloro-1H-benzo[d]imidazol-5-yl)methyl)-N^4-(5-(1-fluorocyclorpropyl)-1H-pyrazol-3-yl)-N^2-methylpyrimidine-2,4-diamine], less than 50 nM. For `Fc1ccc2[nH]ccc2c1CNc1nccc(Nc2cc(C3CC3)[nH]n2)n1` [II-20, N^4-(5-cyclopropyl-1H-pyrazol-3-yl)-N^2-((5-fluoro-1H-indol-4-yl)methyl)pyrimidine-2,4-diamine], the Ki in assay [2] (setting [5]) is less than 50 nM. The same measure, in the same setting: under `C[C@H](Nc1nccc(Nc2cc(C3CC3)[nH]n2)n1)c1cc(F)cc2[nH]ncc12` [II-53, (S)-N^4-(5-cyclopropyl-1H-pyrazol-3-yl)-N^2-(1-(6-fluoro-1H-indazol-4-yl)ethyl)pyrimidine-2,4-diamine] stands less than 50 nM.

Take `CN(Cc1ccc2[nH]cnc2c1Cl)c1nccc(Nc2cc([C@@H]3C[C@H]3F)[nH]n2)n1` [II-49, N^2-((4-chloro-1H-benzo[d]imidazol-5-yl)methyl)-N^4-(5-((1S,2R)-2-fluorocyclopropyl)-1H-pyrazol-3-yl)-N^2-methylpyrimidine-2,4-diamine]: the Ki in assay [2] (setting [5]) was less than 50 nM.

Turning to `C[C@H](Nc1nccc(Nc2cc(C3CC3)[nH]n2)n1)c1cc(F)cc2c1cnn2C` [II-40, (S)-N^4-(5-cyclopropyl-1H-pyrazol-3-yl)-N^2-(1-(6-fluoro-1-methyl-1H-indazol-4-yl)ethyl)pyrimidine-2,4-diamine], in assay [2] (setting [5]), the Ki is 50 to 250 nM.

For the molecule `CCc1c(CNc2nccc(Nc3cc(C4CC4)[nH]n3)n2)ccc2[nH]cnc12` [II-7, N^4-(5-Cyclopropyl-1H-pyrazol-3-yl)-N^2-[(4-ethyl-1H-benzimidazol-5-yl)methyl]pyrimidine-2,4-diamine], the inhibition constant Ki in assay [2] (setting [5]) was less than 50 nM. As to `Fc1ccc(CNc2nccc(Nc3cc(C4CC4)[nH]n3)n2)c2cc[nH]c12` [I-47, N^4-(5-cyclopropyl-1H-pyrazol-3-yl)-N^2-((7-fluoro-1H-indol-4-yl)methyl)pyrimidine-2,4-diamine], the inhibitory constant (Ki) in assay [2] (setting [4]) lay within 250 to 1000 nM.

For `CC[C@H](Nc1nccc(Nc2cc(C3CC3)[nH]n2)n1)c1ccc2[nH]cnc2c1` [I-6, N^2-[(1S)-1-(1H-benzimidazol-5-yl)propyl]-N^4-(5-cyclopropyl-1H-pyrazol-3-yl)pyrimidine-2,4-diamine], the Ki in assay [2] (setting [4]) was less than 50 nM. Still for that read-out and setting: the same measure for `Fc1cc(CNc2ncc(F)c(Nc3cc(C4CC4)[nH]n3)n2)c2cc[nH]c2c1` [I-91, N^4-(5-Cyclopropyl-1H-pyrazol-3-yl)-5-fluoro-N^2-((6-fluoro-1H-indol-4-yl)methyl)pyrimidine-2,4-diamine diformate]: 250 to 1000 nM. Same read-out and setting: the same measure for `C[C@H](Nc1nccc(Nc2cc(OCc3ccccc3)[nH]n2)n1)c1ccc2[nH]cnc2c1` [I-21, N^2-[(1S)-1-(1H-Benzimidazol-5-yl)ethyl]-N^4-(5-benzyloxy-1H-pyrazol-3-yl)pyrimidine-2,4-diamine]: 50 to 250 nM.

Source of the values: patent US8637537B2, “Serine/threonine kinase inhibitors” (Genentech, Inc., priority 2011, dated 2014).
